For orientation: GI50 means the concentration at which growth is held to half of that of the control.

Molecules are shown by their SMILES.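 Grown in 96-well plates, cells were treated for 48 hours with each compound at five concentrations. Insufficient inhibition: endpoint recorded as highest concentration tested. The concentration for 50% growth inhibition is given as GI50.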 The source made the active and inactive calls. Cut-off read from the data, not from the text of the source: active = GI50 up to about 1.1 µM and inactive = higher. Residues, ends and D or L forms follow the SMILES beside them. *: point of attachment. Fmoc = O=C(OCC1c2ccccc2-c2ccccc21)*; Boc = CC(C)(C)OC(=O)*

Some test systems named below: SR; CAKI-1; SK-MEL-2; M14; OVCAR-8; HL-60; EKVX; NCI-H226; SK-MEL-5; MDA-MB-435; RPMI-8226; 786-0; SK-MEL-28; MOLT-4; UACC-62; A549; HCC 2998; DU-145; HCT-116.
Holding throughout (assay): DTP human tumour cell line panel, 48 h

As for `CCOP(C)(=O)C(Nc1ccc(F)cc1)c1ccc(F)cc1` (stereo unspecified), the GI50 in the assay on SR, with CAKI-1, in the assay on SK-MEL-2, in the assay with M14, in the assay with OVCAR-8 and with HL-60 was > 100 µM (inactive) in each case. The GI50 in the assay on EKVX, in the assay on NCI-H226, in the assay on SK-MEL-5, with MDA-MB-435, in the assay on RPMI-8226 and in the assay with 786-0 was > 100 µM (inactive) in each case. Also, the GI50 in the assay on SK-MEL-28, with MOLT-4, with UACC-62, in the assay on A549, in the assay on HCC 2998 and in the assay with DU-145 was > 100 µM (inactive) in each case. Also, in the assay with HCT-116, the GI50 was > 100 µM (inactive).

With `C=C(C)C(=O)O[C@H]1C/C(CO)=C/CCC(=C)C(OC(C)=O)[C@H]2OC(=O)C(=C)[C@H]12` (stereo partly specified), the GI50 is 3.51 µM (inactive) with SR; 9.84 µM (inactive) with CAKI-1; 7.18 µM (inactive) in the assay on SK-MEL-2; 3.49 µM (inactive) in the assay on M14; 16.2 µM (inactive) with OVCAR-8; 3.09 µM (inactive) in the assay on HL-60. Besides, the GI50 in the assay with EKVX was > 10 µM (inactive); in the assay on NCI-H226, 40.8 µM (inactive); in the assay on SK-MEL-5, 14.7 µM (inactive); in the assay on MDA-MB-435, 4.61 µM (inactive); in the assay with RPMI-8226 it was 1.82 µM (inactive); in the assay with 786-0, 3.79 µM (inactive). Further, the GI50 in the assay on SK-MEL-28 is 7.76 µM (inactive); in the assay on MOLT-4 it was 1.96 µM (inactive); in the assay with UACC-62, 10.2 µM (inactive); in the assay with A549 it was 19.1 µM (inactive); in the assay on HCC 2998, 12.5 µM (inactive); in the assay on DU-145, 17 µM (inactive). In addition, the GI50 with HCT-116 is 3.78 µM (inactive).

Consider `CC(C)(C)OC(=O)NCCCCC(NC(=O)C(Cc1c[nH]c2ccccc12)NC(=O)OCC1c2ccccc2-c2ccccc21)C(=O)N1CCCC1C(=O)NCC(N)=O` (stereo unspecified) (Fmoc-WK(Boc)PG-NH2; configuration not given here), for which the GI50 with SR was > 100 µM (inactive); with CAKI-1, > 100 µM (inactive); in the assay with SK-MEL-2 it was > 100 µM (inactive); in the assay on M14, 60.5 µM (inactive); in the assay on OVCAR-8, > 100 µM (inactive); with HL-60, > 100 µM (inactive). Moreover, the GI50 in the assay with EKVX, with NCI-H226, in the assay with SK-MEL-5, with MDA-MB-435, in the assay with RPMI-8226 and in the assay on 786-0 was > 100 µM (inactive) throughout. Moreover, the GI50 in the assay with SK-MEL-28, in the assay with MOLT-4, with UACC-62, with A549, with HCC 2998 and in the assay with DU-145 was > 100 µM (inactive) throughout. Further, the GI50 with HCT-116 was > 100 µM (inactive).

`Cc1cc(O)c2c(c1)C(=O)C=C(Br)C2=O`: the GI50 in the assay with SR was 1.3 µM (inactive); in the assay on CAKI-1 it was 12.5 µM (inactive); with SK-MEL-2, 17.1 µM (inactive); in the assay with M14 it was 15.8 µM (inactive); with OVCAR-8, 19.6 µM (inactive); in the assay with HL-60, 0.724 µM (active). Also, the GI50 was 24.8 µM (inactive) in the assay on EKVX; 19.2 µM (inactive) with NCI-H226; 14.4 µM (inactive) in the assay on SK-MEL-5; 14.5 µM (inactive) in the assay on MDA-MB-435; 6.75 µM (inactive) in the assay with RPMI-8226; 17.5 µM (inactive) in the assay with 786-0. For the same compound, the GI50 is 15.4 µM (inactive) with SK-MEL-28; 0.52 µM (active) with MOLT-4; 16.6 µM (inactive) in the assay with UACC-62; 30.3 µM (inactive) with A549; > 43.7 µM (inactive) in the assay on HCC 2998; 12.4 µM (inactive) with DU-145. Besides, the GI50 in the assay on HCT-116 is 16.6 µM (inactive).

These data come from ChEMBL document CHEMBL1201862, “PubChem BioAssay data set” (2004).
